Target: RAC-alpha serine/threonine-protein kinase (Homo sapiens, UniProt P31749)
Assay: Inhibition of pAkt

Chain of RAC-alpha serine/threonine-protein kinase (P31749 whole entry): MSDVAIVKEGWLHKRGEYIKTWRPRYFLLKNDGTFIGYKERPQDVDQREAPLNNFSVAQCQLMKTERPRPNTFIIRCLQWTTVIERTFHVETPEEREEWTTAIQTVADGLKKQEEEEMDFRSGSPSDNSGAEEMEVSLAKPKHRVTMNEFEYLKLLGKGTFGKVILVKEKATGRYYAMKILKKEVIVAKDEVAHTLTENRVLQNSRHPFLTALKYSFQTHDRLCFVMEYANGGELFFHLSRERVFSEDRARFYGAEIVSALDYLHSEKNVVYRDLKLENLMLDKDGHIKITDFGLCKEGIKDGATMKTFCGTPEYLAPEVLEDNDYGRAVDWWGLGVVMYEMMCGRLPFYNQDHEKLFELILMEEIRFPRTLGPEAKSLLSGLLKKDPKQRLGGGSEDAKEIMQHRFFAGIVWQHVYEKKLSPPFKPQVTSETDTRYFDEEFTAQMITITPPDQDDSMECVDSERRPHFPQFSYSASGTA

SMILES | IC50
CCNC(=O)Nc1ccc(CNc2ncsc2C(=O)Nc2ccc3c(c2)OC(F)(F)O3)cn1 [1-(5-((5-((2,2-difluorobenzo[d][1,3]dioxol-5-yl)carbamoyl)thiazol-4-ylamino)methyl)pyridin-2-yl)-3-ethylurea] | 81 nM
CNC(=O)Nc1ccc(CNc2ncsc2C(=O)Nc2ccc3c(c2)OC(F)(F)O3)cn1 [1-(5-((5-((2,2-difluorobenzo[d][1,3]dioxol-5-yl)carbamoyl)thiazol-4-ylamino)methyl)pyridin-2-yl)-3-methylurea] | 24 nM
CNC(=O)Nc1ccc(CNc2c(C(=O)Nc3ccc(SC(F)(F)F)cc3)cnn2C)cn1 [1-methyl-3-(5-((1-methyl-4-((4-(trifluoromethylthio)phenyl)carbamoyl)-1H-pyrazol-5-ylamino)methyl)pyridin-2-yl)urea] | 15 nM
